The target in experiment [1] is T1, recombinant human Dopamine Subtype D2s receptors (Homo sapiens, UniProt P14416).
T1 construct: purchased Perkin Elmer
Description: Dopamine D2 selectivity binding assay ([3H]-spiperone). To be noted: inhibition of [3H]-spiperone (0.16 nM) binding; read-out: D2 bind pIC50 (converted). Here is the method:
Membranes containing recombinant human Dopamine Subtype D2s receptors were obtained from Perkin Elmer. These were diluted in Assay Buffer (50 mM HEPES, 1 mM EDTA, 120 mM NaCl, 0.1% gelatin, pH 7.4) to provide a final concentration of membranes that gave a clear window between maximum and minimum specific binding.
(§1) Assays were performed in U-bottomed 96-well polypropylene plates. 30 μL [^3H]-spiperone (0.16 nM final concentration) and 30 μL of test compound (10× final concentration) were added to each test well. For each assay plate 8 replicates were obtained for [^3H]-spiperone binding in the presence of 30 μL vehicle (10% (v/v) DMSO in Assay Buffer; defining maximum binding) or 30 μL Haloperidol (10 μM final concentration; defining non-specific binding (NSB)). Membranes were then added to achieve a final volume of 300 μL. The plates were incubated for 2 hours at room temperature and then filtered onto PEI coated GF/B filter plates, pre-soaked for 1 hour in Assay Buffer, using a 96-well plate Tomtec cell harvester. Five washes with 250 μL wash buffer (50 mM HEPES, 1 mM EDTA, 120 mM NaCl, pH 7.4) were performed at 4° C. to remove unbound radioactivity. The plates were dried then sealed from underneath using Packard plate sealers and MicroScint-O (50 μL) was added to each well. The plates were sealed (TopSeal A) and filter-bound radioactivity was measured with a scintillation counter (TopCount, Packard BioScience) using a 3-minute counting protocol.
Total specific binding (B0) was determined by subtracting the mean NSB from the mean maximum binding. NSB values were also subtracted from values from all other wells. […] Data was fitted to a four parameter logistic equation to determine the compound potency, which was expressed as pIC50 (negative log molar concentration inducing 50% inhibition of [^3H]-spiperone binding).

The next experiment deals with T2, Adrenergic β2 (Homo sapiens, UniProt P07550).
T2 construct: Adherent H292 cells were removed from tissue culture flasks; endogenous in cells; host or cells: H292 cells
Description: Adrenergic β2 mediated cAMP production in H292 cells. The experiment is classed as cell-based. To be noted: for EC50: H292 cells, cAMP by AlphaScreen, 60 minutes at room temperature, rolipram 300 μM, read-out: β2 pEC50 (converted); for β2 Int Act: Intrinsic Activity as a fraction relative to the maximum activity determined for formoterol. As for the experimental part: Adrenergic β2 mediated cAMP production
H292 cells were grown in 225 cm2 flasks incubator at 37° C., 5% CO2 in RPMI medium containing, 10% (v/v) FBS (foetal bovine serum) and 2 mM L-glutamine.
Adherent H292 cells were removed from tissue culture flasks by treatment with Accutase™ cell detachment solution for 15 minutes. Flasks were incubated for 15 minutes in a humidified incubator at 37° C., 5% CO2. Detached cells were re-suspended in RPMI media (containing 10% (v/v) FBS and 2 mM L-glutamine) at 0.05×10^6 cells per mL. 5000 cells in 100 μL were added to each well of a tissue-culture-treated 96-well plate and the cells incubated overnight in a humidified incubator at 37° C., 5% CO2. The culture media was removed and cells were washed twice with 100 μL assay buffer and replaced with 50 μL assay buffer (HBSS solution containing 10 mM HEPES pH7.4 and 5 mM glucose). Cells were rested at room temperature for 20 minutes after which time 25 μL of rolipram (1.2 mM made up in assay buffer containing 2.4% (v/v) dimethylsulphoxide) was added. Cells were incubated with rolipram for 10 minutes after which time test compounds were added and the cells were incubated for 60 minutes at room temperature. The final rolipram concentration in the assay was 300 μM and final vehicle concentration was 1.6% (v/v) dimethylsulphoxide. The reaction was stopped by removing supernatants, washing once with 100 μL assay buffer and replacing with 50 μL lysis buffer. The cell monolayer was frozen at −80° C. for 30 minutes (or overnight).
The concentration of cAMP (cyclic adenosine monophosphate) in the cell lysate was determined using AlphaScreen™ methodology. The frozen cell plate was thawed for 20 minutes on a plate shaker then 10 μL of the cell lysate was transferred to a 96-well white plate. 40 μL of mixed AlphaScreen™ detection beads pre-incubated with biotinylated cAMP, was added to each well and the plate incubated at room temperature for 10 hours in the dark. The AlphaScreen™ signal was measured using an EnVision spectrophotometer (Perkin-Elmer Inc.) with the recommended manufacturer's settings. cAMP concentrations were determined by reference to a calibration curve determined in the same experiment using standard cAMP concentrations. Concentration response curves for agonists were constructed and data was fitted to a four parameter logistic equation to determine both the pEC50 and Intrinsic Activity. Intrinsic Activity was expressed as a fraction relative to the maximum activity determined for formoterol in each experiment.
For orientation: cAMP levels reflect the balance of adenylyl cyclase and phosphodiesterase activity.

In experiment [2] the target is T3, recombinant human α1D receptor (Homo sapiens, UniProt P25100).
T3 construct: expressed in transfected cells; host or cells: HEK293
T3 sequence (P25100 1-572): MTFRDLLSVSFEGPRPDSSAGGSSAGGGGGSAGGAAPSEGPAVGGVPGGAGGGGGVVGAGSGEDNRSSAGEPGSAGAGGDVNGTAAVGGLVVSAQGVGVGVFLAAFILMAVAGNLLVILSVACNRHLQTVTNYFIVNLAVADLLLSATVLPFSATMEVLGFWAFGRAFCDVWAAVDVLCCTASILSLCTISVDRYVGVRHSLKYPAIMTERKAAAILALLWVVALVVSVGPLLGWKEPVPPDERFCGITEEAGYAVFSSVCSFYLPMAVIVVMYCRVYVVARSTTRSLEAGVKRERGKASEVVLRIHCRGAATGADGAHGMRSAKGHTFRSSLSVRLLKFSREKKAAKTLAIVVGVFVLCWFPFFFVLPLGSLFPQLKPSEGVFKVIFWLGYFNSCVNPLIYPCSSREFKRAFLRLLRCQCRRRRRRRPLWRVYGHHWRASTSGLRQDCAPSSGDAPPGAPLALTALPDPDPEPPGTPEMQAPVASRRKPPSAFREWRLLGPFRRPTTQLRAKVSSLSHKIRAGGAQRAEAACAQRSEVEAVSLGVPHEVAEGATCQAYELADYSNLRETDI
Description: Adrenergic α1D selectivity binding assay ([3H]-prazosin). The conditions noted are these: inhibition of [3H]-prazosin (0.3 nM) binding, HEK293 membranes; read-out: α1 bind pIC50 (converted). Here is the method:
Membranes were prepared from human embryonic kidney 293 (HEK293) cells expressing recombinant human α1D receptor. These were diluted in Assay Buffer (50 mM HEPES, 1 mM EDTA, 0.1% gelatin, pH 7.4) to provide a final concentration of membranes that gave a clear window between maximum and minimum specific binding.
as §1, with “10” for “30”, “[^3H]-prazosin (0.3” for “[^3H]-spiperone (0.16”, “[^3H]-prazosin” for “[^3H]-spiperone”, “BMY7378” for “Haloperidol”, “100” for “300”, “EDTA,” for “EDTA, 120 mM NaCl,”
Total specific binding (B0) was determined by subtracting the mean NSB from the mean maximum binding. NSB values were also subtracted from values from all other wells. […] Data was fitted to a four parameter logistic equation to determine the compound potency, which was expressed as pIC50 (negative log molar concentration inducing 50% inhibition of [^3H]-prazosin binding).

Experiment [3] has as its target T4, recombinant human adrenergic beta 1 receptors (Homo sapiens, UniProt P08588).
T4 construct: purchased Euroscreen
Description: Adrenergic β1 selectivity binding assay ([125I]-Iodocyanopindolol). To be noted: inhibition of [125I]-Iodocyanopindolol (0.036 nM) binding; read-out: β1 bind p IC50 (converted). As for the experimental part:
Membranes containing recombinant human adrenergic beta 1 receptors were obtained from Euroscreen. These were diluted in Assay Buffer (50 mM HEPES, 1 mM EDTA, 120 mM NaCl, 0.1% gelatin, pH 7.4) to provide a final concentration of membranes that gave a clear window between maximum and minimum specific binding.
as §1, with “10” for “30”, “[^125I]-Iodocyanopindolol (0.036” for “[^3H]-spiperone (0.16”, “[^125I]-Iodocyanopindolol” for “[^3H]-spiperone”, “Propranolol” for “Haloperidol”, “100” for “300”
Total specific binding (B0) was determined by subtracting the mean NSB from the mean maximum binding. NSB values were also subtracted from values from all other wells. […] Data was fitted to a four parameter logistic equation to determine the compound potency, which was expressed as pIC50 (negative log molar concentration inducing 50% inhibition of [^125I]-Iodocyanopindolol binding).

Molecules are shown by their SMILES. Counter-ions that a name gives are not always drawn.

T2 sequence (P07550 whole entry): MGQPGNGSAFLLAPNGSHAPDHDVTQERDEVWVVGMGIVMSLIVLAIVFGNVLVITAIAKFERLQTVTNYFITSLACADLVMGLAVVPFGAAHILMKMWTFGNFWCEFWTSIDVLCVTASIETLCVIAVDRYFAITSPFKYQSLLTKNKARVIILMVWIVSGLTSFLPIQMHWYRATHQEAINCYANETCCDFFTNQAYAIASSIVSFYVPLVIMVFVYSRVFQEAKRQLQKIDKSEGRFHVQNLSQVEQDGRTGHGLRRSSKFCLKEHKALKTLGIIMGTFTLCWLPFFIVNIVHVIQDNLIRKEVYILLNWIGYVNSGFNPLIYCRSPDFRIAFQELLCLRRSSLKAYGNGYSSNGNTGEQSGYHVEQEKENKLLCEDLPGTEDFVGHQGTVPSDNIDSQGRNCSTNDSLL
T1 sequence (P14416 1-414 isoform P14416-2): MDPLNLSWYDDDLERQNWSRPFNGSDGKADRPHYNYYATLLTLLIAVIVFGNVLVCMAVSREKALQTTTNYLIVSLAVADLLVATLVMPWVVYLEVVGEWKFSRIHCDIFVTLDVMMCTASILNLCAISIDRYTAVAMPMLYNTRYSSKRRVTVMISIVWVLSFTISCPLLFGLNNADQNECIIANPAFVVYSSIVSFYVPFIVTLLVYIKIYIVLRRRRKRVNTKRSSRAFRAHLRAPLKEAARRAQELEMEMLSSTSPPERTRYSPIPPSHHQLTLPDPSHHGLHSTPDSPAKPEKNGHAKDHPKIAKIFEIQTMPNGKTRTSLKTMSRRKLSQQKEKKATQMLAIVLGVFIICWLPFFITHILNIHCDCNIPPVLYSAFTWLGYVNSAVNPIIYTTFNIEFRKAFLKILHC
T4 sequence (P08588 whole entry): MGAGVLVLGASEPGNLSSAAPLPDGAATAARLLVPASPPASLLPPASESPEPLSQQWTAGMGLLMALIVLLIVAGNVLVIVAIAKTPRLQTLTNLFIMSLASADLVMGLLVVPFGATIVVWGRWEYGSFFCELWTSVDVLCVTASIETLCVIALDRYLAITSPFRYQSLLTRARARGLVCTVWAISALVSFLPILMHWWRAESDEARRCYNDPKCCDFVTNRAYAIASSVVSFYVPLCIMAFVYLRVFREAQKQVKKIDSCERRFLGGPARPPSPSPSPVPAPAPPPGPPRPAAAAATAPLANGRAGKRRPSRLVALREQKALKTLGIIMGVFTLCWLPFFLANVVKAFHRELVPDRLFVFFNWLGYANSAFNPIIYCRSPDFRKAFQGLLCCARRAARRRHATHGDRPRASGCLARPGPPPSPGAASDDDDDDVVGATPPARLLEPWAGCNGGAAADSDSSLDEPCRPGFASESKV

In the case of `CC(C)(CO)CN(CCNCCc1ccc(O)c2[nH]c(=O)sc12)C(=O)CCNCCc1ccc(Cl)cc1` [Example 40, N^3-[2-(4-Chlorophenyl)ethyl]-N-(3-hydroxy-2,2-dimethylpropyl)-N-(2-{[2-(4-hydroxy-2-oxo-2,3-dihydro-1,3-benzothiazol-7-yl)ethyl]amino}ethyl)-β-alaninamide diacetic acid salt], the IC50 in experiment [1] is 0.794 µM. Also, on Adrenergic β2, the EC50 was 0.0631 µM and the “β2 Int Act” value worked out at 0.64. Moreover, in experiment [2], the IC50 was 0.794 µM.

Regarding `O=C(CCNCCc1ccc(Cl)c(Cl)c1)N(CCNCCc1ccc(O)c2[nH]c(=O)sc12)C1CCC(F)(F)CC1` [Example 49, N^3-[2-(3,4-Dichlorophenyl)ethyl]-N^1-(4,4-difluorocyclohexyl)-N^1-(2-{[2-(4-hydroxy-2-oxo-2,3-dihydro-1,3-benzothiazol-7-yl)ethyl]amino}ethyl)-β-alaninamide bis-trifluoroacetic acid salt], the EC50 at Adrenergic β2 was 0.00794 µM. In addition, the “β2 Int Act” value at Adrenergic β2 stood at 0.59. Also, the IC50 in experiment [3] was 1.58 µM; in experiment [2], 0.631 µM.

On to `COc1cccc(CCNCCC(=O)N(CCNCCc2ccc(O)c3[nH]c(=O)sc23)C2CCCCC2)c1` [Example 70, N^1-Cyclohexyl-N^1-(2-{[2-(4-hydroxy-2-oxo-2,3-dihydro-1,3-benzothiazol-7-yl)ethyl]amino}ethyl)-N^3-[2-(3-methoxyphenyl)ethyl]-β-alaninamide bis-trifluoroacetic acid salt], for which the results for the IC50 in experiment [1] and in experiment [2] were 0.2 µM and 0.126 µM, respectively. For the same molecule, the EC50 on Adrenergic β2 is 0.00501 µM. The “β2 Int Act” value at Adrenergic β2 is 0.84.

Take `O=C(CCNCCC(F)(F)F)N(CCNCCc1ccc(O)c2[nH]c(=O)sc12)C1CCCCC1` [Example 80, N^1-Cyclohexyl-N^1-(2-{[2-(4-hydroxy-2-oxo-2,3-dihydro-1,3-benzothiazol-7-yl)ethyl]amino}ethyl)-N^3-(3,3,3-trifluoropropyl)-β-alaninamide bis-trifluoroacetic acid salt]: in experiment [1], the IC50 is 0.398 µM. At Adrenergic β2, the EC50 was 0.126 µM and the “β2 Int Act” value is 0.86. For the same molecule, the IC50 in experiment [2] was 1.26 µM.

These data come from US20100022491A1, “4-HYDROXY-2-OXO-2,3-DIHYDRO-1,3-BENZOTHIAZOL-7YL COMPOUNDS FOR MODULATION OF B2-ADRENORECEPTOR ACTIVITY” (ASTRAZENECA AB, priority 2006, published 2010).
